The record followed here is patent US9029384B2, “Phosphatidylinositol 3-kinase inhibitors” (Gilead Calistoga LLC, priority 2012, dated 2015).

Read-outs that look alike come from different tables or passages of the source. Some results are limits rather than exact numbers.

The target of one data set is T1, PI3Kδ (Homo sapiens, UniProt O00329).
T1 construct: made in house
In words: Enzymatic activity of PI3K isoforms, TR-FRET assay (PIP3 formation). The class given is biochemical. In outline: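 Recombinant heterodimeric class I PI3K; PIP3 product measured by TR-FRET competition with labelled PIP3 for Eu-GRP-1 PH domain. Reaction 30 min at 25 °C, stopped with 10 mM EDTA.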
A general note: TR-FRET usually uses a lanthanide donor and a delayed reading to cut background.

The subject of the next data set is basophils. The data set can be described thus: Basophil activation in human whole blood (Flow2 CAST kit, CD63 positive cells). Format: cell-based. The following applies: Homo sapiens. An outline of the steps: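 Human whole blood (K2-EDTA) preincubated 60 minutes at 37° C with compound serial dilutions or DMSO (0.3% final), then stimulated with anti-FcεRI mAb or fMLP and stained for CD63/CCR3. Percent CD63+ among ≥200 CCR3-high basophils by flow cytometry, normalized to stimulated vehicle as 100%. EC50 from four-parameter fits, geometric means in nM, concentrations corrected for reagent dilution.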

A short description of data set [1]: Hepatocyte stability, 1% final DMSO, 2 μM substrate (t1/2^a). The class given is in vitro ADME. To be noted: human, cryopreserved hepatocytes, TA with 1% final DMSO. As for the experimental part:
This assay was used to evaluate the metabolic stability of test articles (TA) following incubation in cryopreserved hepatocytes by monitoring parent drug disappearance via […]. The TA with 1% final DMSO concentration was incubated with 1 million hepatocytes/ml at 2 μM substrate in duplicate. The incubation was carried out at 37° C. with 5% CO2 and saturating humidity.

A short description of data set [2]: Hepatocyte stability, 0.01% final DMSO, 1 μM substrate (t1/2^b). Format: in vitro ADME. The following applies: human, hepatocytes, TA with 0.01% final DMSO. How it is done:
Alternatively, assay reagents and/or conditions can be modified in determining the inhibitory activities to PI3K isomers. In additional studies, similar assay using TA and 0.01% final DMSO concentration were incubated with 1 million hepatocytes/mL at 1 μM substrate in duplicate. The incubation was carried out at 37° C. with 5% CO2 and saturating humidity.

[3] abbreviates: PI3Kδ, TR-FRET, 2×Km ATP, 10 μM PIP2, read-out: IC50.
The mark [4] stands for this setting: basophils activated with anti-FcεRI mAb or fMLP, geometric mean.
[5] abbreviates: 2 μM substrate, samples at 0, 1, 2, 4 hours, read-out: human hepatocyte t½^a.
[6] abbreviates: 1 μM substrate, samples at 0, 1, 3, 6 hours, read-out: human hepatocyte t½^b.
Where [7] appears, read: human hepatocytes, read-out: t1/2^a.
Where [8] appears, read: human hepatocytes, read-out: t1/2^b.

T1 sequence (O00329 whole entry): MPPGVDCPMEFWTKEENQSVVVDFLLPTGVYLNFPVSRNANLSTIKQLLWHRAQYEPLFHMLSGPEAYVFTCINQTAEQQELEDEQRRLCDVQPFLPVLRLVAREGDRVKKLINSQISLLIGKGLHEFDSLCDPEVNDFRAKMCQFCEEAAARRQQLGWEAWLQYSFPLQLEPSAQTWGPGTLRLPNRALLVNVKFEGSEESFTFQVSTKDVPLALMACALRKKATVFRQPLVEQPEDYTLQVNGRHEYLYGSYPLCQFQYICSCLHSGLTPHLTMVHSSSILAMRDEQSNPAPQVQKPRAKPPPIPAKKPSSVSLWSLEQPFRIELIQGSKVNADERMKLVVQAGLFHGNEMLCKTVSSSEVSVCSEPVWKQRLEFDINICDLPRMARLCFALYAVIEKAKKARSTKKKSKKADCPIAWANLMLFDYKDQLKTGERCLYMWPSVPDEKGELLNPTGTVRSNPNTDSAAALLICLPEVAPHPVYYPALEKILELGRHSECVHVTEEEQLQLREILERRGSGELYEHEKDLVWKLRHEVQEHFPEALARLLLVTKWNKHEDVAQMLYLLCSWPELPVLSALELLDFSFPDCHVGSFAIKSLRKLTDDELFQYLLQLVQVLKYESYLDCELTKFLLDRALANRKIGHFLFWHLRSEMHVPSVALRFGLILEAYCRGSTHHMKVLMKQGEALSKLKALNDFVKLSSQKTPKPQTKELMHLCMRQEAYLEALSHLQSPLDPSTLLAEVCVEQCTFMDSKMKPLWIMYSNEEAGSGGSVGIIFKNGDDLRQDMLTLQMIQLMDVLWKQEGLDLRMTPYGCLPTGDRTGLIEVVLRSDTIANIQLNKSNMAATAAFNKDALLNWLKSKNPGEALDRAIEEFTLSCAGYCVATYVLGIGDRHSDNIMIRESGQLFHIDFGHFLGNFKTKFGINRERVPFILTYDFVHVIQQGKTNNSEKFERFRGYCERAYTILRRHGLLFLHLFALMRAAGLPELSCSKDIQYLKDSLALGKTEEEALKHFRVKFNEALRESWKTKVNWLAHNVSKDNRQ
T1 sequence (P27986 whole entry partner): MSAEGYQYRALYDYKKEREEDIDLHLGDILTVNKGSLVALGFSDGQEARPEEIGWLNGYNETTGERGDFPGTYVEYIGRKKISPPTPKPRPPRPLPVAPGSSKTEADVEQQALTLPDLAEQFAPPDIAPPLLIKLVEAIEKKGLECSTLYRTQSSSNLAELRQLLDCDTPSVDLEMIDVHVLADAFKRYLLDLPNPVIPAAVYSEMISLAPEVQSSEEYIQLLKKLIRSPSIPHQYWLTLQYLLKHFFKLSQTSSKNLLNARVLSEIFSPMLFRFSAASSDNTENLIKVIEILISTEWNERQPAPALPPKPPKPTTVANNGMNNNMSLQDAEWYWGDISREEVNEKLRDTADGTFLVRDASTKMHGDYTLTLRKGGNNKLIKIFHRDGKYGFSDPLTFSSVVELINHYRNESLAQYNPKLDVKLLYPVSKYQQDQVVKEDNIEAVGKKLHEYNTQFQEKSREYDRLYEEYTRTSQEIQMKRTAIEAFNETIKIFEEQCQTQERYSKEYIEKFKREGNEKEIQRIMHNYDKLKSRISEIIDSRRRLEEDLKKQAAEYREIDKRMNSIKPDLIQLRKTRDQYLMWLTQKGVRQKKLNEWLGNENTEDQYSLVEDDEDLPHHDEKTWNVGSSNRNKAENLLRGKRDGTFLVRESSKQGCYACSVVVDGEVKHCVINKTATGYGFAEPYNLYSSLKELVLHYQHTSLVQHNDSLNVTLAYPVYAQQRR

For `CCC(Nc1nc(N)nc(N)c1C#N)c1nc2c(F)cccc2c(=O)n1-c1cc(F)cc(F)c1` (single isomer, unassigned) [Compound 17a], the 50% inhibitory concentration (IC50) (as a rule, the midpoint of a concentration-inhibition curve) at PI3Kδ (setting [3]) was 1 to 10 nM. Besides, the 50% effective concentration (EC50) (as a rule, the concentration at which the effect is half-maximal) in the data set on basophils (setting [4]) was under 1 nM. The half-life at 2 μM in data set [1] (setting [5]) is over 10 h. Further, in data set [2] (setting [6]), the half-life at 1 μM was 6 to 10 h.
Taken in the same sequence, the figures for `CC(Nc1nc(N)nc(N)c1C#N)c1nc2c(F)ccc(F)c2c(=O)n1-c1cc(F)cc(F)c1` (single isomer, unassigned) [Compound 21a] were 1 to 10 nM, 1 to 10 nM, 6 to 10 h and 3 to 6 h.
Regarding `CCC(Nc1nc(N)nc(N)c1C#N)c1nc2c(F)ccc(F)c2c(=O)n1-c1cc(F)cc(F)c1` (single isomer, unassigned) [Compound 27a], at PI3Kδ (setting [3]), the IC50 is 10 to 50 nM. The half-maximal effective concentration (EC50) with basophils (setting [4]) was in the range of 1 to 10 nM. For the same compound, the half-life at 2 μM in data set [1] (setting [5]) was over 10 h. Also, the half-life at 1 μM in data set [2] (setting [6]) fell in the range of 1 to 3 h.
Taken in the same sequence, the figures for `CCC(Nc1nc(N)nc(N)c1C#N)c1nc2ccccc2c(=O)n1-c1cc(F)cc(F)c1` (single isomer, unassigned) [Compound 36a] were 10 to 50 nM, 1 to 10 nM, over 10 h and over 10 h.
Taken in the same sequence, the figures for `CCC(Nc1nc(N)nc(N)c1C#N)c1nc2c(C)ccc(F)c2c(=O)n1-c1cc(F)cc(F)c1` (single isomer, unassigned) [Compound 37a] were 10 to 50 nM, 10 to 50 nM, 6 to 10 h and 3 to 6 h.
Taken in the same sequence, the figures for `CC(Nc1nc(N)nc(N)c1C#N)c1nc2cccc(F)c2c(=O)n1-c1cccc(C#N)c1` (single isomer, unassigned) [Compound 38a] were 10 to 50 nM, 1 to 10 nM, over 10 h and over 10 h.
In the case of `CC(Nc1nc(N)nc(N)c1C#N)c1nc2cccc(F)c2c(=O)n1-c1cc(Cl)cc(Cl)c1` (single isomer, unassigned) [Compound 42a], the IC50 on PI3Kδ (setting [3]) is 10 to 50 nM. Further, the half-maximal effective concentration (EC50) in the data set on basophils (setting [4]) was 1 to 10 nM. Besides, in data set [1] (setting [5]), the half-life at 2 μM is over 10 h. Also, the half-life at 1 μM in data set [2] (setting [6]) was in the range of 1 to 3 h.
Taken in the same sequence, the figures for `CC(Nc1nc(N)nc(N)c1C#N)c1nc2cccc(F)c2c(=O)n1-c1cc(F)cc(Cl)c1` (single isomer, unassigned) [Compound 44a] were 10 to 50 nM, 10 to 50 nM, over 10 h and 1 to 3 h.
For the compound `CC(Nc1nc(N)nc(N)c1C#N)c1nc2cccc(Cl)c2c(=O)n1-c1ccccc1` (single isomer, unassigned) [Compound 49a], on PI3Kδ (setting [3]), the IC50 is under 1 nM. In addition, the EC50 in the data set with basophils (basophil activation) was under 0.5 nM; in the data set on basophils (setting [4]), under 1 nM. Moreover, the half-life at 2 μM in data set [1] (setting [5]) and in data set [1] (setting [7]) was over 10 h in each case. In addition, the results for the half-life at 1 μM in data set [2] (setting [6]) and in data set [2] (setting [8]) were 3 to 6 h and over 4 h, respectively.
As to `CC(Nc1nc(N)nc(N)c1C#N)c1nc2cccc(C(F)F)c2c(=O)n1-c1cc(F)cc(F)c1` (single isomer, unassigned) [Compound 52a], the concentration for half-maximal inhibition (IC50) on PI3Kδ (setting [3]) fell in the range of 1 to 10 nM. For the same compound, the EC50 with basophils (setting [4]) fell in the range of 1 to 10 nM. For the same compound, the half-life at 2 μM in data set [1] (setting [5]) was over 10 h. The half-life at 1 μM in data set [2] (setting [6]) was 6 to 10 h.
On to `CC(Nc1nc(N)nc(N)c1C#N)c1nc2cccc(F)c2c(=O)n1-c1cc(F)cc(C(F)F)c1` (single isomer, unassigned) [Compound 54a], for which, at PI3Kδ (setting [3]), the IC50 was in the range of 10 to 50 nM. Moreover, the 50% effective concentration (EC50) with basophils (setting [4]) fell in the range of 1 to 10 nM. Also, the half-life at 2 μM in data set [1] (setting [5]) was over 10 h. Besides, the half-life at 1 μM in data set [2] (setting [6]) lay in the range of 3 to 6 h.
Take `Cc1ccc(F)c2c(=O)n(-c3ccccc3)c(C(C)Nc3nc(N)nc(N)c3C#N)nc12` (single isomer, unassigned) [Compound 61a]: the IC50 on PI3Kδ (setting [3]) is 1 to 10 nM. In addition, in the data set on basophils (setting [4]), the EC50 is under 1 nM. The half-life at 2 μM in data set [1] (setting [5]) was over 10 h. In addition, the half-life at 1 μM in data set [2] (setting [6]) lay in the range of 3 to 6 h.
Taken in the same sequence, the figures for `CC(Nc1nc(N)nc(N)c1C#N)c1nc2c(Cl)ccc(F)c2c(=O)n1-c1cc(F)cc(F)c1` (single isomer, unassigned) [Compound 67a] were 1 to 10 nM, 1 to 10 nM, over 10 h and 1 to 3 h.
Taken in the same sequence, the figures for `CC(Nc1nc(N)nc(N)c1C#N)c1nc2c(Cl)cccc2c(=O)n1-c1cc(F)cc(F)c1` (single isomer, unassigned) [Compound 71a] were 1 to 10 nM, 1 to 10 nM, over 10 h and 1 to 3 h.
On to `CC(Nc1nc(N)nc(N)c1C(N)=O)c1nc2cccc(Cl)c2c(=O)n1-c1cc(F)cc(F)c1` (single isomer, unassigned) [Compound 90a], for which, at PI3Kδ (setting [3]), the IC50 was 1 to 10 nM. Besides, in the data set with basophils (setting [4]), the concentration giving a half-maximal response (EC50) lay in the range of 1 to 10 nM. The half-life at 2 μM in data set [1] (setting [5]) was over 10 h. Also, in data set [2] (setting [6]), the half-life at 1 μM lay within 3 to 6 h.
On to `CC(Nc1nc(N)nc(N)c1C#N)c1nc2cccc(F)c2c(=O)n1-c1cccc(C(F)F)c1` (single isomer, unassigned) [Compound 97a], for which, at PI3Kδ (setting [3]), the 50% inhibitory concentration (IC50) was in the range of 1 to 10 nM. Also, the EC50 in the data set on basophils (setting [4]) lay in the range of 1 to 10 nM. For the same compound, the half-life at 2 μM in data set [1] (setting [5]) was over 10 h. In addition, the half-life at 1 μM in data set [2] (setting [6]) was 3 to 6 h.
As for `CC(Nc1nc(N)nc(N)c1C#N)c1nc2c(C#N)cccc2c(=O)n1-c1cc(F)cc(F)c1` (single isomer, unassigned) [Compound 101a], at PI3Kδ (setting [3]), the IC50 is 1 to 10 nM. The EC50 in the data set with basophils (setting [4]) fell in the range of 1 to 10 nM. Besides, the half-life at 2 μM in data set [1] (setting [5]) was over 10 h. Besides, the half-life at 1 μM in data set [2] (setting [6]) fell in the range of 3 to 6 h.
`CC(Nc1nc(N)nc(N)c1C#N)c1nc2cccc(Cl)c2c(=O)n1-c1cccc(C(F)F)c1` (single isomer, unassigned) [Compound 106a]: at PI3Kδ (setting [3]), the IC50 is under 1 nM. For the same compound, the EC50 with basophils (setting [4]) lay in the range of 1 to 10 nM. Moreover, the half-life at 2 μM in data set [1] (setting [5]) is over 10 h. For the same compound, the half-life at 1 μM in data set [2] (setting [6]) lay in the range of 1 to 3 h.
Taken in the same sequence, the figures for `CC(Nc1nc(N)nc(N)c1C#N)c1nc2cccc(Cl)c2c(=O)n1-c1cccc(F)c1` (single isomer, unassigned) [Compound 108a] were under 1 nM, 1 to 10 nM, over 10 h and 3 to 6 h.
Taken in the same sequence, the figures for `CC(Nc1nc(N)nc(N)c1C#N)c1nc2c(C#N)cccc2c(=O)n1-c1ccccc1` (single isomer, unassigned) [Compound 122a] were 1 to 10 nM, 1 to 10 nM, over 10 h and over 10 h.
Take `C[C@H](Nc1nc(N)nc(N)c1C#N)c1nc2cccc(Cl)c2c(=O)n1-c1cc(F)cc(F)c1` [Compound 1a, 2,4-diamino-6-((1-(5-chloro-3-(3,5-difluorophenyl)-4-oxo-3,4-dihydroquinazolin-2-yl)ethyl)amino)pyrimidine-5-carbonitrile]: the concentration for half-maximal inhibition (IC50) at PI3Kδ (setting [3]) was under 1 nM. Also, the EC50 is under 0.5 nM with basophils (basophil activation) and under 1 nM with basophils (setting [4]). Further, the half-life at 2 μM was 6 to 10 h in data set [1] (setting [5]) and over 9 h in data set [1] (setting [7]). Further, the half-life at 1 μM in data set [2] (setting [6]) was 1 to 3 h; in data set [2] (setting [8]), over 1 h.
As for `CC[C@H](Nc1nc(N)nc(N)c1C#N)c1nc2cccc(F)c2c(=O)n1-c1cc(F)cc(F)c1` [Compound 77a, (S)-2,4-diamino-6-((1-(3-(3,5-difluorophenyl)-5-fluoro-4-oxo-3,4-dihydroquinazolin-2-yl)propyl)amino)pyrimidine-5-carbonitrile], the half-inhibitory concentration (IC50) at PI3Kδ (setting [3]) fell in the range of 1 to 10 nM. Also, the EC50 with basophils (setting [4]) lay within 1 to 10 nM. In data set [1] (setting [5]), the half-life at 2 μM is over 10 h. Besides, the half-life at 1 μM in data set [2] (setting [6]) is 1 to 3 h.
In turn, `C[C@H](Nc1ncnc(N)c1C#N)c1nc2cccc(Cl)c2c(=O)n1-c1ccccc1` [Y, reference compound] came in with an IC50 against PI3Kδ of under 1 nM. Further, the values for the EC50 in the data set on basophils (basophil activation) and in the data set on basophils (setting [4]) were over 15 nM and 10 to 50 nM, respectively. For the same compound, the half-life at 2 μM in data set [1] (setting [5]) was under 1 h; in data set [1] (setting [7]) it was under 2 h. The half-life at 1 μM in data set [2] (setting [8]) was under 2 h.
As for `C[C@H](Nc1ncnc(N)c1C#N)c1nc2cccc(Cl)c2c(=O)n1-c1cc(F)cc(F)c1` [Z, reference compound], the half-inhibitory concentration (IC50) on PI3Kδ lay in the range of 1 to 10 nM. In addition, the EC50 was over 10 nM in the data set on basophils (basophil activation) and 10 to 50 nM with basophils (setting [4]). Further, the results for the half-life at 2 μM in data set [1] (setting [5]) and in data set [1] (setting [7]) were 1 to 3 h and under 3 h, respectively. Besides, the half-life at 1 μM in data set [2] (setting [8]) was under 2 h.
